Reference: ChEMBL document CHEMBL1142950, “Zooxanthellamide D, a polyhydroxy polyene amide from a marine dinoflagellate, and chemotaxonomic perspective of the Symbiodinium polyols” (J Nat Prod, 2007)
Activity calls are given as the source filed them. The calls are words filed in the database; no cut-off is given here.

What was measured:
A-431 = test: Cytotoxicity against human A431 cells; assay type: cell-based
[1] = Cytotoxicity against human Nakata cells; assay type: cell-based
Phytophthora capsici = test: Antifungal activity against Phytophthora capsici by paper disk assay; assay type: functional, organism-based

C=CC(=C)CC(=C)/C(C)=C/CC/C=C/C=C(\C)C[C@@H]1O[C@@H](C(O)C(O)C(O)/C(C)=C/C=C/CNC(=O)/C=C/C=C/C(O)CC(O)C(O)C[C@H]2O[C@@H]([C@H]3C[C@H](O)[C@H](O)[C@@](C)(CO)O3)[C@H](O)C(O)[C@@H]2O)[C@@H](O)[C@H](O)[C@H]1O (stereo partly drawn) [ZOOXANTHELLAMIDE D]
IC50 (A-431): 4.5 µM
IC50 [1]: 6.6 µM
Activity (Phytophthora capsici): inactive
